# Results taken from article PMC9618804, “CXCR1 and its downstream NF-κB inflammation signaling pathway as a key target of Guanxinning injection for myocardial ischemia/reperfusion injury” (Frontiers in Immunology, 2022).
# Columns and labels:
# hCXCR1 = molecular target: T1, hCXCR1 (Homo sapiens, UniProt P25024); assay: CETSA in cell lysate, Western blot; assay type: biochemical; settings: AC-16 lysate; 20 uM DSS, 30 min at room temperature, 3 min at 37-73 C
# T1 construct: gene CXCR1; native full-length receptor in freeze-thaw lysate supernatant of human AC-16 cardiomyocytes; detected by Western blot
# T1 sequence (P25024 1-350): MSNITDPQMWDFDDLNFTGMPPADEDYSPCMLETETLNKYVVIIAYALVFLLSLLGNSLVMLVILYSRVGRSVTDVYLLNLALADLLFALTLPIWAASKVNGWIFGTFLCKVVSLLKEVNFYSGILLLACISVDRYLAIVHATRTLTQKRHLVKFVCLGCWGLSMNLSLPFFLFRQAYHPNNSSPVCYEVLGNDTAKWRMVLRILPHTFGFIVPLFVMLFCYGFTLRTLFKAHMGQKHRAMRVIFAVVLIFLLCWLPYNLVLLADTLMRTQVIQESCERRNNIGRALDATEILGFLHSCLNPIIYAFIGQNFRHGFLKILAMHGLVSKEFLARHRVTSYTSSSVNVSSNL
# mCXCR1 = molecular target: T2, mCXCR1 (Mus musculus, UniProt Q810W6); assay: CETSA and isothermal dose-response (ITDRF-CETSA) in cell lysate, Western blot; assay type: biochemical; settings: HL-1 lysate; 20 uM DSS, 30 min at room temperature, 3 min at 37-73 C; ITDRF 0-20 uM at 61 C
# T2 construct: gene Cxcr1; native full-length receptor in freeze-thaw lysate supernatant of mouse HL-1 cardiomyocytes; detected by Western blot (anti-CXCR1 bs-1009R)
# T2 sequence (Q810W6 1-351): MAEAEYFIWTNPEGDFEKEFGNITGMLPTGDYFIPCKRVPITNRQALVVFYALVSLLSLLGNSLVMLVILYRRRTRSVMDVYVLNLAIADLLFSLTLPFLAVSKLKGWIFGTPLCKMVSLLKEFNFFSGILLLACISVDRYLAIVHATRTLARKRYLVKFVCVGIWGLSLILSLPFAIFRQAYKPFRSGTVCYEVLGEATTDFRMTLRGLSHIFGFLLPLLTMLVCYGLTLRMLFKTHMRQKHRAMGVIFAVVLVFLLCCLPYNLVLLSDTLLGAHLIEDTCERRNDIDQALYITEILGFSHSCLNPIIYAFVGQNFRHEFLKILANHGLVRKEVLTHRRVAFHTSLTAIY
structure (smiles),measurement,setting,value
"O=C(O)[C@H](O)Cc1ccc(O)c(O)c1 [DSS, Danshensu]",thermal stabilization (CETSA),hCXCR1,DSS also binds to hCXCR1 to increase its thermal stability
same,thermal stabilization (CETSA),mCXCR1,this thermal stabilization between Danshensu and mCXCR1 was dose dependent from ITDRFCETSA
